The values below come from patent US6300364A, “Medicinal compositions with cholesterol-lowering effect” (priority 1997, dated 2001).

Test [1] has as its target T1, PPARα (Mus musculus, UniProt P23204).
T1 construct: mPPARα (Gly^165 -Tyr^467); expressed in transfected cells; host or cells: HepG2
T1 sequence (P23204 165-468 limits assumed): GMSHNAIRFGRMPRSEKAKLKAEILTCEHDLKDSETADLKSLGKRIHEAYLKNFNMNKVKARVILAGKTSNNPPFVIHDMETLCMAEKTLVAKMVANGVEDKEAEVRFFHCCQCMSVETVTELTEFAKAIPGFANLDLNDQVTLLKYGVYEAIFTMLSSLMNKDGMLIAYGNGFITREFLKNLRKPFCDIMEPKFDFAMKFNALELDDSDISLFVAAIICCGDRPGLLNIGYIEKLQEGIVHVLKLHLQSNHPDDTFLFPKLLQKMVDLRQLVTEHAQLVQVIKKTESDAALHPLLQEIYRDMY
The test is described as follows: GAL4-PPARα reporter (luciferase) activation assay in HepG2 cells. The note with it: read-out: Relative activity (control = 1) PPARα. The test is classed as cell-based.

The target of test [2] is T2, PPARδ (Mus musculus, UniProt P35396).
T2 construct: mPPARδ (Met^137 -Tyr^439); expressed in transfected cells; host or cells: HepG2
T2 sequence (P35396 137-440 limits assumed): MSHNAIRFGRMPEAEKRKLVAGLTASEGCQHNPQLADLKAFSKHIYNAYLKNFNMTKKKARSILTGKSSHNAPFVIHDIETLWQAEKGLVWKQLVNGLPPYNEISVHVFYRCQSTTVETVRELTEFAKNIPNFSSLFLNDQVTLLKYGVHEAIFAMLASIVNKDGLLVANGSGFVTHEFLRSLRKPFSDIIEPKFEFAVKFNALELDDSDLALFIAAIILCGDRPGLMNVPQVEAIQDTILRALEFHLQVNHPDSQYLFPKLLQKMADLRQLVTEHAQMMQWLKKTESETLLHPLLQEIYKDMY
The test is described as follows: GAL4-PPARδ reporter (luciferase) activation assay in HepG2 cells. The test is classed as cell-based. Conditions: for PPARδ-activating effect (in words): conclusion from Table 1; for fold induction at 100 µM: read-out: Relative activity (control = 1) PPARδ.

The next test concerns the target T3, PPARγ (Mus musculus, UniProt P37238).
T3 sequence (P37238 202-505): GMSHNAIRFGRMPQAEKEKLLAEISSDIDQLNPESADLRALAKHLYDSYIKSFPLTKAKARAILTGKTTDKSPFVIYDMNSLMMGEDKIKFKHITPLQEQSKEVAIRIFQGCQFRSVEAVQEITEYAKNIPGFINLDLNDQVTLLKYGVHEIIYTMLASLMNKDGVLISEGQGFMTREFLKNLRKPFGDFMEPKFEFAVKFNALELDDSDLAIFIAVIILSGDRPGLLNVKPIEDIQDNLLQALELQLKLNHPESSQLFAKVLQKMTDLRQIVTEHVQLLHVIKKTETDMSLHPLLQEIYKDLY
The test is described as follows: GAL4-PPARγ reporter (luciferase) activation assay in HepG2 cells. The note with it: for fold induction at 100 µM: HepG2, 48 h, read-out: Relative activity (control = 1) PPARγ; for PPARγ-activating effect (in words): conclusion from Table 1. An excerpt:
To identify a compound having a PPARδ and PPARγ ligand effect, fused gene expression vectors of the DNA-binding domain (GAL4-DNA bindgn domain, GAL4-DBD) of a yeast transcription activated protein and the PPAR ligand binding domains (LBDs) were constructed. Three activation vectors thus constructed were named GAL-PPARα, GAL-PPARδ and GAL-PPARγ respectively.
i) Ligand binding domains (PPAR-LBDs) of mouse peroxisome-proliferator-activated receptors (mPPARα, mPPARδ and mPPARγ) were each amplified by PCR (polymerase chain reaction). As a template employed in the amplification, total RNA was prepared from a fat tissue around mouse epididymis with the use of a total RNA extracting reagent Isogen (manufactured by Nippon Gene) in accordance with the attached manufacturer's instruction. […] PCR was performed by using GeneAmp PCR System Model 9600.
ii) Into one side of each primer thus synthesized, a recognition sequence of a restriction enzyme SmaI or BamHI had been preliminarily inserted so that the primer could be cleaved with the restriction enzyme. After the amplification, the PCR fragment was ligated with pGBT9 DNA-Binding Domain Vector (5.5 kb, having the GAL4-DBD domain and an ampicillin resistance gene Amp^R sequence, manufactured by Clontech) and the vector thus formed was named pGBT9-PPAR-LBD.
iii) A fused gene domain (GAL4-DBD+PPAR-LBD) wherein GAL4-DBD contained in pGBT9-PPAR-LBD was legated to PPARLBD was excised by using HindIII/SalI and transferred into the multiple cloning site (MCS) of an expression vector pZeoSV (3.5 kb, having zeocin resistance gene Zeo^R sequence, manufactured by Clontech) by using HindIII/Xhol. The thus obtained chimeric expression vectors of GAL4-DBD ad PPAR-LBD were named respectively GAL-PPARα, GAL-PPARδ and GAL-PPARγ.
i) DNA sequences were synthesized by using a DNA synthesizer (Beckman DNA Synthesizer oligo1000M, manufactured by Beckman) by repeating the GAL4-DBD binding sequence (GAL4 responsive element, RE or UASG) once (RE×1) or thrice (RE×3). Then appropriate restriction enzyme cites were introduced into both ends and these sequences were ligated together to give a 4-repetition sequence fragment (RE×4). Further, an 8-repetition sequence fragment (RE×8) was formed by using the same.
ii) A DNA sequence wherein TATA box was ligated to the above GAL4 responsive sequence (RE×8) was formed by PCR and then inserted into the 5'-side upstream of the luciferase gene sequence (RE-LUC) in a vector for luciferae assay system (Pica Gene Vector-2, (PGV-B2), Toyo Ink Mfg.). […] RE-LUC containing RE×8 was transferred into cells together with GAL-PPARγ. Then CS-045 (troglitazone), i.e., the ligand of PPARγ was added.
By using the activation vectors and reporter vectors constructed in the above (1) and (2), the PPAR activation effect of a compound was measured by a method involving the following three steps: i) Cotransfection of construction into a host; ii) treatment of cells by adding the compound; and iii) assay of the reporter gene expression level.
HepG2 cells (American Type Culture Collection, Maryland, USA) was inoculated into a collagen type IV treated 96-well plate (manufactured by Iwaki) at a cell density of 1×10^4 /well and incubated for 2 days in the presence of Dulbecco's modified Eagle medium containing 10% of fetal calf serum (FCS) (200 μl/well, FCS-DMEM (GIBCO BRL)). Next, the cells were washed with 100 μl/well of a cell incubation medium (OPTI-MEM I Reduced Serum Medium, manufactured by GIBCO BRL) maintained at 37° C.

A short description of test [3]: Test for evaluating cholesterol-lowering effect by using rhesus monkey. The test is classed as in vivo. The note with it: for Decrease in LDL-C (LDL-cholesterol level) / Decrease in TC (serum total cholesterol level): male rhesus monkeys, 30 mg/kg/day in feed, 2 weeks, compared with data before the administration; for Effect of lowering serum total cholesterol level, in particular LDL-cholesterol level (in words): rhesus monkeys, conclusion from Table 2. As to the method: A test for evaluating cholesterol-lowering effect was performed by using rhesus monkeys in accordance with a method described in Br. J. Pharmacol., 118, p.174-178, 1996.
i) Male rhesus monkeys weighing about 4.5 to 5 kg (Purchased from Hamri) were fed by giving twice a day 50 g/day of a solid feed, which had been prepared by adding 50 ml of water and vitamin C (5 mg/kg/day, manufactured by Sigma) to 50 g of Purina powdery feed (Code #5408, manufactured by Oriental Yeast) and solidifying the mixture, and about 100 g of banana.
ii) The monkeys having been accustomed to the control feed were divided into a control group having 4 animals and test groups each having 3 animals. The animals of the […] were fed with the control feed. On the other hand, the animals of one test group were fed with a composition feed containing 30 mg/kg/day of YM-16683, while those of the other test group were fed with a composition feed containing 30 mg/kg/day of the compound of Production Example 1, each twice a day. To avoid unfinished feeding, banana was given to the animals after taking 50 g of each feed.
iii) The groups were fed with respective feeds for 2 weeks. About 16 hours before the day before the final administration, the animals were fasted and the blood samples were collected from thigh. After measuring body weight, blood collection was performed twice, i.e., before and after the administration of the test compound. Each blood sample thus collected was heparinized and serum was separated therefrom. Next, the total cholesterol level (TC) and LDL-cholesterol level (LDL-C) were measured by the enzymatic method with the use of an automatic analyzer (Model 736-10, Hitachi) (Table 2).
Decrease was calculated by comparing the data before the administration.

In test [4] the test system is PPARα. The note with it: literature report; cited from earlier work.
Test [5] concerns PPARδ. Conditions: literature report; cited from earlier work.
The conditions of test [6]: cited from earlier work; for Decrease in serum cholesterol level: normal subjects.
The conditions of test [7]: cited from earlier work.
[8] abbreviates: test compound 10^-4 M, HepG2 cells, 48 hours, luciferase activity corrected by β-galactosidase, DMSO control = 1.0.

Molecules are shown by their SMILES. Read-outs that look alike come from different tables or passages of the source.

With `CCCc1c(OCCCOc2ccc(CC(=O)O)cc2)ccc(C(C)=O)c1O` [Production Example 1, p-[3-(4-acetyl-3-hydroxy-2-propylphenoxy)propoxy]phenylacetic acid], the fold induction at 100 µM at PPARα [1] (setting [8]) was 0.6. Besides, the “PPARδ-activating effect (in words)” value at PPARδ [2] is “effect of activating PPARδ and PPARγ”. The fold induction at 100 µM at PPARδ [2] (setting [8]) turned out to be 83.5. On PPARγ, the fold induction at 100 µM was 10.3; the “PPARγ-activating effect (in words)” value was “effect of activating PPARδ and PPARγ”. In test [3], the “Decrease in LDL-C (LDL-cholesterol level)” value came to 34%; the “Decrease in TC (serum total cholesterol level)” value is recorded as 29%; the “Effect of lowering serum total cholesterol level, in particular LDL-cholesterol level (in words)” value was “excellent effect of lowering serum total cholesterol level, in particular, LDL-cholesterol level”.

In the case of `CCCCC[C@H](O)/C=C/[C@@H]1[C@H]2C/C(=C/CCCC(=O)O)C[C@H]2C[C@H]1O` [cPGI2, carbaprostacyclin], the fold induction at 100 µM at PPARα [1] (HepG2, 48 h) worked out at 15.2; on PPARδ [2] (HepG2, 48 h) it was 34; at PPARγ, 1.6. The “PPARα activation / ligand activity (in words)” value with PPARα [4] was “has activities of both of PPARα and PPARδ ligands”. Further, in the test on PPARδ [5], the “PPARδ activation / ligand activity (in words)” value is “has activities of both of PPARα and PPARδ ligands”.

With `CCCCC[C@H](O)/C=C/[C@@H]1[C@H]2C/C(=C/CCCC(=O)O)O[C@H]2C[C@H]1O` [PGI2, prostacyclin], the “PPARα activation / ligand activity (in words)” value with PPARα [4] is “activates neither PPARα nor PPARδ”. The “PPARδ activation / ligand activity (in words)” value in the test on PPARδ [5] is on record as “activates neither PPARα nor PPARδ”.

Take `CCCc1c(OCCCSc2nnc(SCC(=O)O)s2)ccc(C(C)=O)c1O` [YM-16638]: the fold induction at 100 µM at PPARα [1] (setting [8]) was 1. Besides, the “PPARδ-activating effect (in words)” value at PPARδ [2] was “effect of activating PPARδ and PPARγ”. Besides, the fold induction at 100 µM at PPARδ [2] (setting [8]) was determined as 46.2. For the same compound, at PPARγ, the fold induction at 100 µM stood at 2.5; the “PPARγ-activating effect (in words)” value was “effect of activating PPARδ and PPARγ”. In test [3], the “Decrease in LDL-C (LDL-cholesterol level)” value stood at 14%; the “Decrease in TC (serum total cholesterol level)” value was 33%; the “Effect of lowering serum total cholesterol level, in particular LDL-cholesterol level (in words)” value is reported as “excellent effect of lowering serum total cholesterol level, in particular, LDL-cholesterol level”. Also, the “Effect of lowering serum triglyceride level (in words)” value in test [6] (humans) is listed as “only a weak effect”. The “Decrease in serum cholesterol level” value in test [6] (administration dose 60 mg) is reported as “about 26%”. Moreover, in test [6] (administration dose 120 mg), the “Decrease in serum cholesterol level” value was around 41%.

As for `CCc1ccc(CCOc2ccc(CC3SC(=O)NC3=O)cc2)nc1` (centres unmarked) [Pioglitazone], the fold induction at 100 µM at PPARα [1] (HepG2, 48 h) is 1.5; on PPARδ [2] (HepG2, 48 h), 1.4.

On to `Cc1cccc(Nc2cc(Cl)nc(SCC(=O)O)n2)c1C` [Wy 14,643, prinixic acid], for which the fold induction at 100 µM at PPARγ came to 1.8. In addition, in the test on PPARα [4], the “PPARα activation / ligand activity (in words)” value is “ligand specific to PPARα”.

Regarding `CCOC(=O)C(C)(C)Oc1ccc(Cl)cc1` [Clofibrate], the fold induction at 100 µM amounted to 2.2 at PPARα [1] (HepG2, 48 h); 1.3 on PPARδ [2] (HepG2, 48 h); 0.9 at PPARγ.

With `CCC(C)(C)C(=O)O[C@H]1C[C@@H](C)C=C2C=C[C@H](C)[C@H](CC[C@@H]3C[C@@H](O)CC(=O)O3)[C@H]21` [simvastatin], the “Decrease in serum cholesterol level” value in test [7] (patient with hyperlipemia, total serum cholesterol level of 220 mg/dl or above) is listed as “about 20%”; in test [7] (phase I clinical test, normal subjects, about 1 week after the initiation of the administration), “about 20%”.
